In US4346087A, “Antibacterial surface active agent containing azaalkenelactam” (priority 1979, dated 1982):
≈ marks a conversion by molar mass, not a printed value. Like-named read-outs stand apart in the source and are kept apart here.

Experiments:
[1] = tested on: Bacillus subtilis ATCC 6633; assay: MIC against Bacillus subtilis ATCC 6633; type: cell-based; conditions: Bacillus subtilis, ATCC6633, 24 h
From the text: (§1) Below are described the antibacterial activities of the compounds in the compositions according to this invention. The results of antibacterial activity tests on the N-alkyl-substituted azaalkenelactams and their derivatives having a carboxylate radical of Examples 1 to 70 were as shown in Tables 1 to 3.
(§2) The testing method complied with the standard method of Japan Sociaty of Chemotherapy.

Pasteurella multocida = assay: MIC against Pasteurella multocida; type: cell-based; conditions: Pasteurella multocida; Table 3; heart infusion agar, 37° C., 24 hours; read-out: MIC
From the text: as §1, §2

Escherichia coli NIHJ = assay: MIC against Escherichia coli NIHJ; type: cell-based; conditions: Escherichia coli, 24 h
From the text: (§3) Below are described the antibacterial activities of the compounds in the compositions according to this invention.
as §2

[2] = tested on: Staphylococcus aureus FDA 209P; assay: MIC against Staphylococcus aureus FDA 209P; type: cell-based; conditions: Staphylococcus aureus, FDA209P
From the text: as §3, §2

[3] = tested on: Pseudomonas aruginosa IFO 3443; assay: MIC against Pseudomonas aeruginosa; type: cell-based; conditions: Pseudomonas, IFO3443, 24 h
From the text: as §1, §2

Salmonella typhinurium = assay: microbe, parasite or virus in culture; type: cell-based, Salmonella typhimurium
From the text: as §1, §2

[4] = tested on: Desulfovibrio desulfuricans IFO 13699; assay: MIC against Desulfovibrio desulfuricans; type: cell-based; conditions: Desulfovibrio desulfuricans
From the text: as §3, §2

[5] = tested on: Staphylococcus epidermidis; assay: MIC against Staphylococcus epidermidis; type: cell-based; conditions: Staphylococcus epidermidis
From the text: as §1, §2

Streptococcus faecalis = assay: MIC against Streptococcus faecalis; type: cell-based; conditions: Enterococcus faecalis, 24 h
From the text: as §1, §2

[6] = Table 1, azaalkenelactams, heart infusion agar, 37° C., 24 hours, read-out: MIC
[7] = Table 3, heart infusion agar, 37° C., 24 hours, read-out: MIC
[8] = IFO13699, Table 1, azaalkenelactams, heart infusion agar, 37° C., 24 hours, read-out: MIC

Question: Which MIC [1] does the source give for `CCCCCCCCCCCCCCNCCN1CCN=CC(C)C1=O` (stereo not drawn) [Example 40, 4-tetradecylaminoethyl-6-methyl-3,6-dihydro-2H-1,4-diazepin-5-one] here?
Answer: Its MIC is 3.12 µg/mL (≈ 8.53 µM).

Question: What about the MIC (Pasteurella multocida) of the same molecule?
Answer: The MIC was less than 1.56 µg/mL.

Question: And the MIC (Escherichia coli NIHJ)?
Answer: The MIC was 6.25 µg/mL (≈ 17.1 µM).

Question: And the MIC [2, 6]?
Answer: Its MIC is 1.56 µg/mL (≈ 4.27 µM).

Question: What about the MIC [3] of the same molecule?
Answer: The MIC was 50 µg/mL (≈ 137 µM).

Question: And the MIC (Salmonella typhinurium; [7])?
Answer: The MIC was 3.12 µg/mL (≈ 8.53 µM).

Question: What about the MIC [4, 8] of the same molecule?
Answer: The MIC was 1.56 µg/mL (≈ 4.27 µM).

Question: And the MIC [5, 7]?
Answer: Its MIC is less than 1.56 µg/mL.

Question: And the MIC (Streptococcus faecalis)?
Answer: Its MIC is 3.12 µg/mL (≈ 8.53 µM).

Question: What does the source list for `CCCCCCCCCCCC(=O)NCCN1CC[N+](CC(=O)[O-])=C(C)CC1=O` [4-lauramidoethyl-7-methyl-1-azonia-4-azacyclohept-7-en-5-one-1-acetate]?
Answer: MIC [1]: 50 µg/mL (≈ 122 µM); MIC (Pasteurella multocida): < 1.56 µg/mL; MIC (Escherichia coli NIHJ): 100 µg/mL (≈ 244 µM); MIC ([2]; 24 h): 50 µg/mL (≈ 122 µM); MIC [3]: 200 µg/mL (≈ 488 µM); MIC (Salmonella typhinurium; 24 h): 6.25 µg/mL (≈ 15.3 µM); MIC ([4]; IFO13699, 24 h): 12.5 µg/mL (≈ 30.5 µM); MIC ([5]; 24 h): 12.5 µg/mL (≈ 30.5 µM); MIC (Streptococcus faecalis): 12.5 µg/mL (≈ 30.5 µM)

Question: What does the source list for `CCCCCCCCCCCCCCNCCN1CC[N+](CC(=O)[O-])=C(C)CC1=O` [4-tetradecylaminoethyl-7-methyl-1-azonia-4-azacyclohept-7-en-5-one-1-acetate]?
Answer: MIC [1]: 12.5 µg/mL (≈ 29.5 µM); MIC (Pasteurella multocida): 3.12 µg/mL (≈ 7.36 µM); MIC (Escherichia coli NIHJ): 100 µg/mL (≈ 236 µM); MIC ([2]; Table 2, derivatives having a carboxylate radical, heart infusion agar, 37° C., 24 hours, read-out: MIC): 3.12 µg/mL (≈ 7.36 µM); MIC [3]: 100 µg/mL (≈ 236 µM); MIC (Salmonella typhinurium; 24 h): 6.25 µg/mL (≈ 14.8 µM); MIC ([4]; IFO13699, Table 2, derivatives having a carboxylate radical, heart infusion agar, 37° C., 24 hours, read-out: MIC): 3.12 µg/mL (≈ 7.36 µM); MIC [5, 7]: 3.12 µg/mL (≈ 7.36 µM); MIC (Streptococcus faecalis): 6.25 µg/mL (≈ 14.8 µM)

Question: `CCCCCCCCCCCCNCCNCCN1CCN=C(C)CC1=O` [Example 34, 4-dodecylaminoethylaminoethyl-7-methyl-3,6-dihydro-2H-1,4-diazepin-5-one] was tested. Which MIC [1] did it give?
Answer: Its MIC is 3.12 µg/mL (≈ 8.2 µM).

Question: And the MIC (Pasteurella multocida)?
Answer: The MIC was less than 1.56 µg/mL.

Question: What about the MIC (Escherichia coli NIHJ) of the same molecule?
Answer: The MIC was 25 µg/mL (≈ 65.7 µM).

Question: What about the MIC [2, 6] of the same molecule?
Answer: Its MIC is 3.12 µg/mL (≈ 8.2 µM).

Question: What about the MIC [3] of the same molecule?
Answer: The MIC was 100 µg/mL (≈ 263 µM).

Question: What about the MIC (Salmonella typhinurium; [7]) of the same molecule?
Answer: The MIC was 3.12 µg/mL (≈ 8.2 µM).

Question: And the MIC [4, 8]?
Answer: Its MIC is 3.12 µg/mL (≈ 8.2 µM).

Question: What about the MIC [5, 7] of the same molecule?
Answer: Its MIC is less than 1.56 µg/mL.

Question: What about the MIC (Streptococcus faecalis) of the same molecule?
Answer: Its MIC is 6.25 µg/mL (≈ 16.4 µM).
